# In US5603943A, “Nasally administrable compositions” (Dott Research Laboratory, priority 1994, dated 1997):
# Several values for one entry are separate records, joined by “and”; a condition that tells them apart may be missing. Equal values may be shown once.
# What was measured:
# [1] = Glucagon blood concentration, nasal powder with hydroxyapatite (Test Example 8); assay type: in vivo, healthy male adults (human)
# Procedure: A nasally administrable composition in powdery form was prepared by formulating glucagon (from hog spleen) as a physiologically active peptide at the rate of 40 mg per composition (1,000 mg) with hydroxyapatite as a carrier having a mean particle size ranging from 40 to 45 μm.
# The resulting composition was nasally administered once at a dose of 1.2 glucagon unit/30 mg to three healthy male adults and the blood (2.5 ml) was collected from each of the tested adults prior to administration and then at 5, 10, 15, 20, 30, 45, 60, 90, 120, 150 and 180 minutes after administration. The concentration of the glucagon in each of the collected blood samples was assayed with a standard RIA assay kit.
# [2] = Glucagon blood concentration, nasal powder with calcium carbonate (Test Example 9); assay type: in vivo, healthy male adults (human); details: for Concentration of glucagon in the blood: nasal 1.2 glucagon unit/30 mg, individual cases No. 21-24 in order
# Procedure: (§1) A nasally administrable composition in powdery form was prepared by formulating glucagon (from hog spleen) as a physiologically active peptide at the rate of 40 mg per composition (1,000 mg) with calcium carbonate as a carrier having a mean particle size ranging from 40 to 45 μm.
# […] The concentration of the glucagon in each of the collected blood samples was assayed with a standard RIA assay kit.
# [3] = Glucagon blood concentration, nasal powder with calcium carbonate, two doses (Test Example 12); assay type: in vivo, healthy male adults (human)
# Procedure: as §1
# The resulting composition was nasally administered once at a dose of 0.4 glucagon unit/30 mg to two healthy male adults and 2 glucagon unit/30 mg to another two healthy male adults, and the blood (2.5 ml) was collected from each of the tested adults prior to administration and then at 5, 10, 15, 20, 30, 45, 60, 90, 120, 150 and 180 minutes after administration. The concentration of the glucagon in each of the collected blood samples was assayed with a standard RIA assay kit.
# [4] = Nasal absorption, clinical effect and irritation (general statement); assay type: in vivo; details: powder in specific carrier, nasal route
substance,measurement,setting,value
glucagon,absorption through nasal route,[1],high extent of absorption
same,Concentration of glucagon in the blood,"[1]; 0 min (predose), nasal 1.2 glucagon unit/30 mg, individual cases No. 17-20 in order",51 pg/mL and 46 pg/mL and 36 pg/mL and 68 pg/mL
same,absorption through nasal route,[2],high extent of absorption
same,Concentration of glucagon in the blood,[2]; 0 min (predose),34 pg/mL and 56 pg/mL and 42 pg/mL and 48 pg/mL
same,Concentration of glucagon in the blood,[2]; 5 min,73 pg/mL and 79 pg/mL and 80 pg/mL and 53 pg/mL
same,Concentration of glucagon in the blood,[2]; 10 min,97 pg/mL and 91 pg/mL and 80 pg/mL and 44 pg/mL
same,Concentration of glucagon in the blood,[2]; 15 min,86 pg/mL and 79 pg/mL and 83 pg/mL and 53 pg/mL
same,Concentration of glucagon in the blood,[2]; 20 min,85 pg/mL and 89 pg/mL and 82 pg/mL and 50 pg/mL
same,Concentration of glucagon in the blood,[2]; 30 min,71 pg/mL and 77 pg/mL and 90 pg/mL and 55 pg/mL
same,Concentration of glucagon in the blood,[2]; 45 min,73 pg/mL and 89 pg/mL and 76 pg/mL and 49 pg/mL
same,Concentration of glucagon in the blood,[2]; 60 min,64 pg/mL and 79 pg/mL and 77 pg/mL and 46 pg/mL
same,Concentration of glucagon in the blood,[2]; 90 min,62 pg/mL and 78 pg/mL and 73 pg/mL and 47 pg/mL
same,Concentration of glucagon in the blood,[2]; 120 min,56 pg/mL and 79 pg/mL and 88 pg/mL and 46 pg/mL
same,Concentration of glucagon in the blood,[2]; 150 min,52 pg/mL and 67 pg/mL and 79 pg/mL and 54 pg/mL
same,Concentration of glucagon in the blood,[2]; 180 min,51 pg/mL and 66 pg/mL and 62 pg/mL and 50 pg/mL
same,Concentration of glucagon in the blood,"[3]; 0 min (predose), nasal 0.4 glucagon unit/30 mg, individual cases No. 33-34 in order",112 pg/mL and 60 pg/mL
same,Concentration of glucagon in the blood,"[3]; 0 min (predose), nasal 2 glucagon unit/30 mg, individual cases No. 35-36 in order",53 pg/mL and 97 pg/mL
same,absorption through nasal route,[3]; 0.4 and 2 glucagon unit,high extent of absorption
same,Concentration of glucagon in the blood,"[3]; 5 min, nasal 0.4 glucagon unit/30 mg, individual cases No. 33-34 in order",115 pg/mL and 65 pg/mL
same,Concentration of glucagon in the blood,"[3]; 5 min, nasal 2 glucagon unit/30 mg, individual cases No. 35-36 in order",76 pg/mL and 109 pg/mL
same,Concentration of glucagon in the blood,"[3]; 10 min, nasal 0.4 glucagon unit/30 mg, individual cases No. 33-34 in order",119 pg/mL and 77 pg/mL
same,Concentration of glucagon in the blood,"[3]; 10 min, nasal 2 glucagon unit/30 mg, individual cases No. 35-36 in order",116 pg/mL and 104 pg/mL
same,Concentration of glucagon in the blood,"[3]; 15 min, nasal 0.4 glucagon unit/30 mg, individual cases No. 33-34 in order",130 pg/mL and 72 pg/mL
same,Concentration of glucagon in the blood,"[3]; 15 min, nasal 2 glucagon unit/30 mg, individual cases No. 35-36 in order",85 pg/mL and 96 pg/mL
same,Concentration of glucagon in the blood,"[3]; 20 min, nasal 0.4 glucagon unit/30 mg, individual cases No. 33-34 in order",127 pg/mL and 79 pg/mL
same,Concentration of glucagon in the blood,"[3]; 20 min, nasal 2 glucagon unit/30 mg, individual cases No. 35-36 in order",102 pg/mL and 118 pg/mL
same,Concentration of glucagon in the blood,"[3]; 30 min, nasal 0.4 glucagon unit/30 mg, individual cases No. 33-34 in order",116 pg/mL and 86 pg/mL
same,Concentration of glucagon in the blood,"[3]; 30 min, nasal 2 glucagon unit/30 mg, individual cases No. 35-36 in order",56 pg/mL and 100 pg/mL
same,Concentration of glucagon in the blood,"[3]; 45 min, nasal 0.4 glucagon unit/30 mg, individual cases No. 33-34 in order",121 pg/mL and 75 pg/mL
same,Concentration of glucagon in the blood,"[3]; 45 min, nasal 2 glucagon unit/30 mg, individual cases No. 35-36 in order",94 pg/mL and 105 pg/mL
same,Concentration of glucagon in the blood,"[3]; 60 min, nasal 0.4 glucagon unit/30 mg, individual cases No. 33-34 in order",137 pg/mL and 61 pg/mL
same,Concentration of glucagon in the blood,"[3]; 60 min, nasal 2 glucagon unit/30 mg, individual cases No. 35-36 in order",79 pg/mL and 122 pg/mL
same,Concentration of glucagon in the blood,"[3]; 90 min, nasal 0.4 glucagon unit/30 mg, individual cases No. 33-34 in order",122 pg/mL and 66 pg/mL
same,Concentration of glucagon in the blood,"[3]; 90 min, nasal 2 glucagon unit/30 mg, individual cases No. 35-36 in order",60 pg/mL and 117 pg/mL
same,Concentration of glucagon in the blood,"[3]; 120 min, nasal 0.4 glucagon unit/30 mg, individual cases No. 33-34 in order",108 pg/mL and 57 pg/mL
same,Concentration of glucagon in the blood,"[3]; 120 min, nasal 2 glucagon unit/30 mg, individual cases No. 35-36 in order",69 pg/mL and 99 pg/mL
same,Concentration of glucagon in the blood,"[3]; 150 min, nasal 0.4 glucagon unit/30 mg, individual cases No. 33-34 in order",111 pg/mL and 76 pg/mL
same,Concentration of glucagon in the blood,"[3]; 150 min, nasal 2 glucagon unit/30 mg, individual cases No. 35-36 in order",69 pg/mL and 106 pg/mL
same,Concentration of glucagon in the blood,"[3]; 180 min, nasal 0.4 glucagon unit/30 mg, individual cases No. 33-34 in order",110 pg/mL and 74 pg/mL
same,Concentration of glucagon in the blood,"[3]; 180 min, nasal 2 glucagon unit/30 mg, individual cases No. 35-36 in order",60 pg/mL and 105 pg/mL
same,absorption into the body,[4],well absorbed into the body
same,clinical effects,[4],high clinical effects
